Consider 4 compounds from patent US10150772B2, “Crystalline forms of PARP inhibitors” (priority 2014, dated 2018).

Data set [1] is classed as physicochemical. To be noted: for Stability to the test conditions (in words): 28 day test period. The protocol:
Identity, Assay, and Purity by HPLC
Testing was performed on a calibrated and validated Agilent 1200 Rapid Resolution High Performance Liquid Chromatography (HPLC) system designated LC-0430-AD or LC-418-1D. The system comprises a binary SL pump, degasser, high performance autosampler SL with a fraction collector, thermostated column compartment with a 2 valve column switcher, and a DAD SL detector. All standard solutions and samples were prepared in Class A glass volumetric flasks and were placed in autosampler vials. Standard weighings were done using a calibrated Mettler analytical balance. The sample preparations were centrifuged using an Eppendorf microcentrifuge. The primary chromatography data was acquired and integrated using Empower 2 software. Microsoft Office Excel 2003 was used for the calculation of results.
Solid State Stability of Salts at 40° C. and 75% Humidity:
Samples of the form to be studied (15-20 mg) were weighed into standard 1.5 mL HPLC vials (32×11.6 mm) and stored uncapped for 0, 7, 14 and 28 days in a 40° C. and 75% RH stability chamber. Samples were removed on the indicated day and capped. Measurements of XRPD, DSC, TGA and HPLC Identity by Purity and Assay measurements were completed on each time point sample.

A short description of data set [2]: Dynamic vapor sorption (DVS), water sorption. Conditions: for DVS sorption behaviour (in words) / Total uptake (moisture): 25° C.; for Total uptake (moisture): entire RH range. It is filed as physicochemical. As for the experimental part: Dynamic Vapor Sorption (DVS):
DVS experiments have been carried out using the DVS-HT instrument (Surface Measurement Systems, London, UK). This instrument measures the uptake and loss of vapor gravimetrically using a recording ultra-microbalance with a mass resolution of ±0.1 μg. The vapor partial pressure (±1.0%) around the sample is controlled by mixing saturated and dry carrier gas streams using electronic mass flow controllers. The desired temperature is maintained at ±0.1° C. The samples (1-10 mg) were placed into the DVS-HT and DVS-1 instruments at the desired temperature.
The sample was loaded and unloaded at 40% RH and 25° C. (typical room conditions). A moisture sorption isotherm was performed as outlined below (2 scans giving 1 complete cycle). The software uses a least squares minimization procedure together with a model of the mass relaxation, to predict an asymptotic value. The measured mass equilibration value must be within 2% of that predicted by the software before proceeding to the next % RH value. The minimum equilibration time was set to 1 hour and the maximum to 4 hours.

Data set [3] is described as follows: Estimation of water solubility. It is filed as physicochemical. The protocol:
Estimation of Water Solubility: Ten mg portions of the salt forms to be studied were weighed into a standard 1.5 mL HPLC vial (32×11.6 mm). […] An estimation of solubility was based on the volume of water necessary to dissolve the known weight of sample.

Where [4] appears, read: 40° C. and 75% RH, day 14, HPLC.
Setting [5] is: 40° C. and 75% RH, day 28, HPLC.
Setting [6] is: initial, before 40° C. and 75% RH stability testing.

Each structure is given as a SMILES string. Where a name gives a salt, the structure may show the parent alone. Read-outs that look alike come from different tables or passages of the source.

Take `COc1cccc2[nH]c3c4c(c5c(c3c12)C(=O)N(CN1CCN(C)CC1)C5=O)CCC4` [Hydrochloride Salt, Form A]: the “Stability to the test conditions (in words)” value (“Stability” below) in data set [1] (40° C. and 75% RH) is reported as “relatively constant XRPD pattern”. In addition, the “Compound A Assay value, change (in words)” value in data set [1] (40° C. and 75% RH, after 28 days) is “decreasing to nearly half”. In addition, in data set [2] (DVS), the “DVS sorption behaviour (in words)” value is given as “surface adsorption with limited bulk absorption throughout the entire RH range” and the “Total uptake (moisture)” value is listed as around 2.25%.

For `COc1cccc2[nH]c3c4c(c5c(c3c12)C(=O)N(CN1CCN(C)CC1)C5=O)CCC4` [L-Malate Salt, Form A1], in data set [1] (40° C. and 75% RH), the “Stability” value is “stable to the test conditions”. Moreover, the “HPLC Purity” value in data set [1] (40° C. and 75% RH, day 0) is recorded as 99.5%; in data set [1] (40° C. and 75% RH, day 7), 99.3%; in data set [1] (40° C. and 75% RH, day 14), 98.8%; in data set [1] (40° C. and 75% RH, day 28), 98.4%. The TGA amounted to 0.1% in data set [1] (40° C. and 75% RH, day 0); 0.2% in data set [1] (40° C. and 75% RH, day 7); 0.8% in data set [1] (40° C. and 75% RH, day 14); 0.3% in data set [1] (40° C. and 75% RH, day 28). Moreover, the “COMPOUND A Assay” value was found to be 69.9% in data set [1] (40° C. and 75% RH, day 0, HPLC); 71.8% in data set [1] (40° C. and 75% RH, day 7, HPLC); 72.0% in data set [1] (setting [4]); 71.7% in data set [1] (setting [5]). Moreover, the “COMPOUND B Assay” value in data set [1] (40° C. and 75% RH, day 0, HPLC) is listed as 0.2%; in data set [1] (40° C. and 75% RH, day 7, HPLC), 0.4%; in data set [1] (setting [4]) it was 0.5%; in data set [1] (setting [5]), 0.8%. In addition, the XRPD result is recorded as “No change” in data set [1] (40° C. and 75% RH, day 7); “No change” in data set [1] (40° C. and 75% RH, day 14); “No change” in data set [1] (40° C. and 75% RH, day 28). For the same compound, the “DVS sorption behaviour (in words)” value in data set [2] (DVS) is “very little water absorption during the first cycle from 40% RH to 70% RH”. For the same compound, in data set [2] (DVS), the “Total uptake (moisture)” value is around 2%.

In the case of `COc1cccc2[nH]c3c4c(c5c(c3c12)C(=O)N(CN1CCN(C)CC1)C5=O)CCC4` [L-Pyroglutamate Salt, Form A1], in data set [1] (40° C. and 75% RH), the “Stability” value is “stable over a 28 day test period, except for a slow increase in Compound B content”. Also, in data set [2] (DVS), the “DVS sorption behaviour (in words)” value is “massive uptake in moisture” and the “Total uptake (moisture)” value was around 27%. In addition, the “Water absorption, first cycle” value in data set [2] (DVS, RH range of 40-75%) is listed as around 2%.

On to `COc1cccc2[nH]c3c4c(c5c(c3c12)C(=O)N(CN1CCN(C)CC1)C5=O)CCC4.O=C(O)C[C@H](O)C(=O)O` [L-malate (2 Eq.)], for which, in data set [3], the “Est. Water Solubility” value was above 100 mg/mL. Moreover, the “COMPOUND B After 40/75” value in data set [1] (after 40° C. and 75% RH stability testing) was 1.2%. Besides, in data set [1] (setting [6]), the “COMPOUND A Initial” value was 71.3% and the “COMPOUND B Initial” value is 0.2%. In data set [1] (initial, comparison of salts), the TGA stood at 0.1%. Moreover, the DVS entry in data set [2] (water sorption reversible or irreversible) is recorded as “Irreversible”.
